Measurements: ChEMBL document CHEMBL2429792, “2D QSAR of heteroaryl-substituted propanolamines as antihypertensive agents” (2013)

species: Rattus norvegicus; experiment: Antihypertensive activity in rat assessed as inhibition of isoproterenol-induced tachycardia; assay type: functional

SMILES | log1/activity
N#Cc1ccccc1OCC(O)CNCCNC(=O)Cc1c[nH]c2ccccc12 (stereo unspecified) | 6.44
CNC(=O)Nc1ccc(C(=O)NCCNCC(O)COc2cccc3c2OCCO3)cc1 (stereo unspecified) | 7.34
O=C(NCCNCC(O)COc1ccccc1)c1ccncc1 (stereo unspecified) | 5.79
O=C(NCCNCC(O)COc1cccc2ccccc12)c1ccco1 (stereo unspecified) | 4.73
N#Cc1ccccc1OCC(O)CNCCNC(=O)c1ccco1 (stereo unspecified) | 4.73
Cc1ccccc1OCC(O)CNCCNC(=O)c1ccco1 (stereo unspecified) | 5.38
COc1ccc2c(O)cc(CC(=O)NCCNCC(O)COc3ccccc3C#N)nc2c1 (stereo unspecified) | 6.65
CC(C)C(=O)NCCNCC(O)COc1cccc2[nH]ccc12 (stereo unspecified) | 7.2
N#Cc1ccccc1OCC(O)CNCCNC(=O)Cc1cccs1 (stereo unspecified) | 6.95
CC(C)C(=O)NCCNCC(O)COc1cccc2sccc12 (stereo unspecified) | 5.82
O=C(NCCNCC(O)COc1cccc2c1OCCO2)c1ccc(O)cc1 (stereo unspecified) | 6.41
O=C(Cc1ccccc1)NCCNCC(O)COc1cccc2c1OCCO2 (stereo unspecified) | 5.41
Cc1cc(C(=O)NCCNCC(O)COc2ccccc2C#N)[nH]n1 (stereo unspecified) | 4.78
O=C(NCCNCC(O)COc1cccc2occc12)Nc1ccccc1 (stereo unspecified) | 5.56
CC(=O)c1ccc(C(=O)NCCNCC(O)COc2cccc3c2OCCO3)cc1 (stereo unspecified) | 6.31
O=C(NCCNCC(O)COc1ccccc1)c1cc2ccccc2[nH]1 (stereo unspecified) | 4.54
N#Cc1ccccc1OCC(O)CNCCNC(=O)c1ccc2ccccc2n1 (stereo unspecified) | 4.59
N#Cc1ccccc1OCC(O)CNCCNC(=O)Cc1csc(-c2ccc(Cl)cc2)n1 (stereo unspecified) | 4.89

SMILES | log1/activity
O=C(NCCNCC(O)COc1cccc2c1OCCO2)Nc1ccccc1 (stereo unspecified) | 4.58
O=C(NCCNCC(O)COc1ccccc1)c1ccco1 (stereo unspecified) | 5.48
COc1cc(CC(=O)NCCNCC(O)COc2ccccc2C#N)nc(-c2ccc(Cl)cc2)n1 (stereo unspecified) | 4.69
CC(C)C(=O)NCCNCC(O)COc1nccs1 (stereo unspecified) | 5.91
N#Cc1ccccc1OCC(O)CNCCNC(=O)c1cc2ccccc2[nH]1 (stereo unspecified) | 4.57
Nc1ccc(C(=O)NCCNCC(O)COc2cccc3c2OCCO3)cc1 (stereo unspecified) | 5.5
C=CCOc1ccccc1OCC(O)CNCCNC(=O)c1ccco1 (stereo unspecified) | 5.07
O=C(NCCNCC(O)COc1cccc2sccc12)Nc1ccccc1 (stereo unspecified) | 4.88
O=C(NCCNCC(O)COc1cccc2c1OCCC2=O)Nc1ccccc1 (stereo unspecified) | 4.83
O=C(NCCNCC(O)COc1ccccc1I)c1ccco1 (stereo unspecified) | 5.27
CC(C)C(=O)NCCNCC(O)COc1cccc2nsnc12 (stereo unspecified) | 4.52
O=C(NCCNCC(O)COc1ccccc1O)C1CCCO1 (stereo unspecified) | 5.16
CC(C)C(=O)NCCNCC(O)COc1nsnc1N1CCOCC1 (stereo unspecified) | 6.34
NC(=O)c1ccccc1OCC(O)CNCCNC(=O)c1cccs1 (stereo unspecified) | 4.78
O=C(NCCNCC(O)COc1ccccc1)c1cccs1 (stereo unspecified) | 5.92
Cc1cccc(OCC(O)CNCCNC(=O)c2ccco2)c1 (stereo unspecified) | 4.9
CC(=O)Nc1ccc(OCC(O)CNC(C)C)cc1 (stereo unspecified) [PRACTOLOL] | 5.72
CC(C)NCC(O)COc1cccc2ccccc12 (stereo unspecified) [PROPRANOLOL] | 6.11
